Patent US20060188508A1, “Methods and compositions for modulating angiogenesis” (priority 2005, published 2006)
Ends that are not written are not given here.

B1: anti-CD47 monoclonal antibody, clone B6H12 (BD Pharmingen) (antibody)
chain: EVQLVESGGDLVKPGGSLKLSCAASGFTFSGYGMSWVRQTPDKRLEWVATITSGGTYTYYPDSVKGRFTISRDNAKNTLYLQIDSLKSEDTAIYFCARSLAGNAMDYWGQGTSVTVSSGGGGSGGGGSGGGGSDIVMTQSPATLSVTPGDRVSLSCRASQTISDYLHWYQQKSHESPRLLIKFASQSISGIPSRFSGSGSGSDFTLSINSVEPEDVGVYYCQNGHGFPRTFGGGTKLEIK

Tests used:
[1] = tested on: M2182tTA; experiment: Drug sensitivity by MTT assay (IC50); type: cell-based, human; details: mean ± SD of three determinations
[2] = tested on: Clone 18; experiment: Drug sensitivity by MTT assay (IC50); type: cell-based, human; details: for Fold of resistance (Clone 18/M2182tTA): IC50 of clone 18 divided with IC50 of M2182tTA; for IC50: MTT assay, mean ± SD of three determinations; for Killing of clone 18 cells compared with parental cells: non-taxane drugs, Table 1
[3] = tested on: M2182tTA cells; experiment: Preliminary taxol exposure of plated cells before selection of resistant clones; type: cell-based, human; details: 5 days of exposure to 5 nM taxol; preliminary experiments
[4] = tested on: clone 18 cells; experiment: Modulation of drug cytotoxicity by added TSP-1, mimetic peptides, antibody or MDR inhibitor (MTT viability); type: cell-based, human; details: for Effect on taxol resistance / taxol cytotoxicity in clone 18: added to culture with various taxol concentrations, MTT
[5] = tested on: M2182tTA cells; experiment: Modulation of drug cytotoxicity by added TSP-1, mimetic peptides, anti-CD47 antibody or pertussis toxin (MTT viability); type: cell-based, human
[6] = tested on: clone 18 cells; experiment: TUNEL assay of taxol-induced apoptosis; type: cell-based, human; details: taxol plus 7.5 μg/ml purified TSP-1, 3 days
[7] = target: CD47 receptor (integrin-associated protein) (human, UniProt Q08722 19-323); experiment: cell-based or functional assay
[8] = adriamycin, etoposide, vinblastine, vincristine, epothilone B

Molecule	Fold of resistance (Clone 18/M2182tTA) [2]	Killing of clone 18 cells compared with parental cells [2]	IC50 ([1]; Homo sapiens)	IC50 ([2]; Homo sapiens)	Effect on taxol resistance / taxol cytotoxicity in clone 18 [4]	other results
C/C(=C\c1csc(C)n1)[C@@H]1C[C@@H]2O[C@]2(C)CCC[C@H](C)[C@H](O)[C@@H](C)C(=O)C(C)(C)[C@@H](O)CC(=O)O1 [Epothilone B]	0.9	No evidence of reduced killing				IC50 [1]: 0.75 ± 0.35 nM; IC50 [2]: 0.68 ± 0.21 nM
CC(=O)O[C@H]1C(=O)[C@@]2(C)[C@H]([C@H](OC(=O)c3ccccc3)[C@]3(O)C[C@H](OC(=O)[C@H](O)[C@@H](NC(=O)c4ccccc4)c4ccccc4)C(C)=C1C3(C)C)[C@]1(OC(C)=O)CO[C@@H]1C[C@@H]2O [Taxol, Paclitaxel]	2.45		7.2 ± 0.11 nM	17.5 ± 0.18 nM		Fold of resistance (Clone 18/M2182tTA) ([2]; listed as taxol): approximately two and a half-fold; Surviving M2182tTA cells [3]: no surviving M2182tTA cells
GVITRIR (human) [ABT-510]					no effect	
COc1cc([C@@H]2c3cc4c(cc3[C@@H](O[C@@H]3O[C@@H]5CO[C@@H](C)O[C@H]5[C@H](O)[C@H]3O)[C@H]3COC(=O)[C@H]23)OCO4)cc(OC)c1O [Etoposide, etoposide]	0.81	No evidence of reduced killing	800 ± 30 nM	650 ± 60 nM		
KRFYGGMWKK [4NGG]					no effect	
CC[C@]1(O)C[C@@H]2CN(CCc3c([nH]c4ccccc34)[C@@](C(=O)OC)(c3cc4c(cc3OC)N(C)[C@H]3[C@@](O)(C(=O)OC)[C@H](OC(C)=O)[C@]5(CC)C=CCN6CC[C@]43[C@@H]65)C2)C1 [Vinblastine, vinblastine]	0.93	No evidence of reduced killing	7.5 ± 0.18 nM	7 ± 0.21 nM		
COc1cccc2c1C(=O)c1c(O)c3c(c(O)c1C2=O)C[C@@](O)(C(=O)CO)C[C@@H]3O[C@H]1C[C@H](N)[C@H](O)[C@H](C)O1 [Adriamycin, adriamycin]	0.83	No evidence of reduced killing	0.15 ± 0.0099 µg/mL	0.133 ± 0.0071 µg/mL		
CC[C@]1(O)C[C@H]2CN(CCc3c([nH]c4ccccc34)[C@@](C(=O)OC)(c3cc4c(cc3OC)N(C=O)[C@H]3[C@@](O)(C(=O)OC)[C@H](OC(C)=O)[C@]5(CC)C=CCN6CC[C@]43[C@@H]65)C2)C1 [Vincristine, vincristine]	1.09	No evidence of reduced killing		12 ± 0.42 nM		
TSP-1: TSP-1 purified from human platelets, purchased from EMD Biosciences					dose-dependent partial reversal	Survival and apoptosis with agent alone ([4]; TSP-1 alone at the dosage added to clone 18 cultures): only limited ability to reduce survival and induce apoptosis; Effect on killing of clone 18 cells by other chemotherapeutic agents [4, 8]: no effects; Effect on taxol-mediated killing of naïve M2182tTA cells ([5]; added to culture with taxol, MTT): reduced survival; Effect on sensitivity of M2182tTA cells to other chemotherapeutic drugs [5, 8]: sensitization was not observed; Taxol-induced apoptosis [6]: dramatically and synergistically increased
KRFYVVMWKK [4N1K]					dose-dependent partial reversal	
CC(=O)O[C@@]12CO[C@@H]1C[C@H](O)[C@@]1(C)C(=O)[C@H](O)C3=C(C)[C@@H](OC(=O)[C@H](O)[C@@H](NC(=O)OC(C)(C)C)c4ccccc4)C[C@@](O)([C@@H](OC(=O)c4ccccc4)[C@H]21)C3(C)C [Docetaxel]	2.62		2.66 ± 0.11 nM	6.93 ± 0.05 nM		
B1						viability of M2182tTA cells to taxol treatment (MTT assay, 10 ug/ml antibody) [7]: 2.2 fold
